The record followed here is PMC7074166, “Screening for Small Molecule Modulators of Trypanosoma brucei Hsp70 Chaperone Activity Based upon Alcyonarian Coral-Derived Natural Products” (Marine Drugs, 2020).

For this assay, the system named is bloodstream form T. b. brucei parasites. In words: Resazurin-based anti-trypanosomal assay on bloodstream form T. b. brucei parasites. To be noted: for IC50 / pIC50: Trypanosoma brucei; for IC50: Table 1, T. b. brucei parasites cultured in vitro, dose-response, read-out: IC50/μM. The class given is cell-based, Trypanosoma brucei brucei. How it is done: Bloodstream form T. b. brucei Lister 927 variant 221 strain parasites were cultured in filter sterilized complete Iscoves Modified Dulbeccos Media (IMDM) based HM1-9 medium (IMDM base powder, […] sodium bicarbonate, 1 mM hypoxanthine, 1 mM sodium pyruvate, 0.16 mM thymidine, 0.05 mM bathocuprone sulphate acid, 10% (v/v) heat inactivated foetal bovine serum, 1.5 mM L-cysteine, 0.2 mM β-mercaptoethanol, pH 7.5) in a humidified chamber at 37 °C with an atmosphere of 5% CO2. Parasite growth was monitored using a Neubauer haemocytometer to count the cell number, after which cells were diluted, according to their density, in the described pre-warmed media.
All compounds of interest were resuspended to stocks of 30 mM in DMSO and stored at −80 °C prior to use in in vitro experiments. For assessment of anti-trypanosomal activity, compounds were added to in vitro cultures of bloodstream form T. b. brucei parasites (1 × 10^5 cells/mL) in 96-well plates at a fixed concentration of 20 μM. After an incubation period of 48 h, the number of parasites surviving drug exposure were determined using a resazurin-based cytotoxicity assay. Resazurin is an oxidation–reduction sensitive dye that is reduced by living cells to resorufin. Resorufin is a fluorophore (Excitation560/Emission590) and thus was quantified in a multi-well fluorescence plate reader. Results are expressed as % parasite viability—the resorufin fluorescence in small molecule-treated wells relative to untreated controls. Assessment of each small molecule was conducted in duplicate, with error bars representing standard deviation (SD). […] The compounds were added to in vitro cultures of bloodstream form T. b. brucei parasites (1 × 10^5 cells/mL) in 96-well plates in a 3-fold dilution series with 100 μM as the highest concentration. After an incubation period of 48 h, the number of parasites surviving drug exposure were determined as previously mentioned. The % parasite viability was determined as previously mentioned. The IC50 (the concentration of compound required to decrease cell viability of T. b. brucei parasites by 50% compared to those grown in the absence of the compound) values for each of the compounds were determined from a dose–response curve by non-linear regression generated using GraphPad Prism® (v. 7.0; San Diego, CA, USA) software. For comparative purposes, pentamidine at a fixed concentration of 1 μM was employed as a drug standard.
Background: The colour change of resazurin is a common sign of viable cells or microbes.

The mark [1] stands for this setting: Table S1, 48 select compounds, T. b. brucei, 48 h, read-out: IC50/.

pIC50: −log10 of the molar value. Read-outs that look alike come from different tables or passages of the source.

Consider `CC(C)=CCC/C(C)=C/CC/C(C)=C/CC/C(C)=C/Cn1cnc2c(Cl)ncnc21` [Compound 19, 6-Chloro-9-((2E,6E,10E)-3,7,11,15-tetramethylhexadeca-2,6,10,14-tetraen-1-yl)-9H-purine], for which the IC50 (48 h) came out at 6.8 µM. Also, under setting [1], the pIC50 is 5.17.

As for `CC(=O)NC/C=C(\C)CC/C=C(\C)CCC=C(C)C` [Compound 83, N-((2E,6E)-3,7,11-trimethyldodeca-2,6,10-trien-1-yl)acetamide], the IC50 (48 h) worked out at 21.5 µM. In addition, under setting [1], the pIC50 was 4.67.

On to `CC(C)=CCC/C(C)=C/CC/C(C)=C\Cn1cnc2c1c(=O)[nH]c(=O)n2C` [Compound 30, 3-Methyl-7-((2Z,6E)-3,7,11-trimethyldodeca-2,6,10-trien-1-yl)-3,7-dihydro-1H-purine-2,6-dione], for which the IC50 (48 h) is 4.6 µM. Further, under setting [1], the pIC50 is 5.34.

As to `CC(C)=CCC/C(C)=C/CC/C(C)=C/CC/C(C)=C\Cn1cnc2c1c(=O)[nH]c(=O)n2C` [Compound 32, 3-Methyl-7-((2Z,6E,10E)-3,7,11,15-tetramethylhexadeca-2,6,10,14-tetraen-1-yl)-3,7-dihydro-1H-purine-2,6-dione], the IC50 (48 h) was 5.9 µM.

Take `CC(C)=CCC/C(C)=C/CC/C(C)=C\CNC=O` [Compound 74, N-((2Z,6E)-3,7,11-Trimethyldodeca-2,6,10-trien-1-yl)formamide]: the IC50 (48 h) turned out to be 27.3 µM. Moreover, the pIC50 under setting [1] was 4.56.

Regarding `CC(C)=CCC/C(C)=C/Cn1cnc2ncnc(Cl)c21` [Compound 16, (E)-6-chloro-7-(3,7-dimethylocta-2,6-dien-1-yl)-7H-purine], the IC50 (48 h) is 11 µM. Further, the pIC50 under setting [1] was 4.96.

In the case of `CC(C)=CCC/C(C)=C/CC/C(C)=C/CC/C(C)=C/Cn1cnc2c(cnn2C/C=C(\C)CC/C=C(\C)CC/C=C(\C)CCC=C(C)C)c1=O` [Compound 50, 1,5-Bis((2E,6E,10E)-3,7,11,15-tetramethylhexadeca-2,6,10,14-tetraen-1-yl)-1,5-dihydro-4H-pyrazolo[3,4-d]pyrimidin-4-one], the IC50 (48 h) is 2.1 µM. For the same molecule, the pIC50 under setting [1] was 5.68.

For the molecule `CC(C)=CCC/C(C)=C/Cn1cnc2c(N(C)C)ncnc21` [Compound 9, (E)-9-(3,7-Dimethylocta-2,6-dien-1-yl)-N,N-dimethyl-9H-purin-6-amine], under “48 h”, the IC50 amounted to 28.4 µM. The pIC50 under setting [1] is 4.55.

As for `CC(C)=CCC/C(C)=C/CC/C(C)=C/CC/C(C)=C/Cn1cnc2c1c(=O)n(C)c(=O)n2C` [Compound 37, 1,3-dimethyl-7-((2E,6E,10E)-3,7,11,15-tetramethylhexadeca-2,6,10,14-tetraen-1-yl)-3,7-dihydro-1H-purine-2,6-dione], for the setting “48 h”, the IC50 came to 21.6 µM.

As for `CC(C)=CCC/C(C)=C/CCC(C)=CCn1cnc(N(C)C)c2ncnc1-2` [Compound 12, N,N-dimethyl-3-((6E)-3,7,11-trimethyldodeca-2,6,10-trien-1-yl)-3H-purin-6-amine], the IC50 (48 h) was found to be 14 µM.

Consider `CC(C)=CCC/C(C)=C/CC/C(C)=C/Cn1cnc2nncc-2c1O` [Compound 49, 5-((2E,6E)-3,7,11-trimethyldodeca-2,6,10-trien-1-yl)-5H-pyrazolo[3,4-d]pyrimidin-4-ol], for which, for the setting “48 h”, the IC50 was determined as 16.7 µM. For the same molecule, the pIC50 under setting [1] is 4.78.

Turning to `CC(C)=CCC/C(C)=C/CCC(C)=CCn1ccnc1` [Compound 71, 1-((6E)-3,7,11-Trimethyldodeca-2,6,10-trien-1-yl)-1H-imidazole], the IC50 (48 h) is 26.8 µM. Moreover, the pIC50 under setting [1] is 4.57.

In the case of `CC(C)=CCC/C(C)=C/CC/C(C)=C/CC/C(C)=C/Cn1cnc2ncnc(Cl)c21` [Compound 20, 6-chloro-7-((2E,6E,10E)-3,7,11,15-tetramethylhexadeca-2,6,10,14-tetraen-1-yl)-7H-purine], the IC50 (48 h) amounted to 11 µM. Under setting [1], the pIC50 is 4.96.

For the molecule `CC(C)=CCC/C(C)=C/CCC(C)=CCNC=O` [Compound 75, N-((6E)-3,7,11-trimethyldodeca-2,6,10-trien-1-yl)formamide], the “anti-trypanosomal activity (SAR statement)” value (T. b. brucei, screen at 20 μM) is “inactive”.

Regarding `CC(C)=CCC/C(C)=C/CCC(C)=CCn1cnc2c(N)ncnc21` [Compound 7, 9-((6E)-3,7,11-trimethyldodeca-2,6,10-trien-1-yl)-9H-purin-6-amine], the IC50 (48 h) turned out to be 47.7 µM. Under setting [1], the pIC50 is 4.32.

`CC(C)=CCC/C(C)=C/CCC(C)=CCN1C(=O)c2ccccc2C1=O` [Compound 68, 2-((6E)-3,7,11-Trimethyldodeca-2,6,10-trien-1-yl)isoindoline-1,3-dione]: the IC50 (48 h) was found to be 32.2 µM. Further, under setting [1], the pIC50 is 4.49.

For `CC(C)=CCC/C(C)=C/CC/C(C)=C/CC/C(C)=C\Cn1cnc2c1c(=O)n(C)c(=O)n2C` [Compound 36, 1,3-Dimethyl-7-((2Z,6E,10E)-3,7,11,15-tetramethylhexadeca-2,6,10,14-tetraen-1-yl)-3,7-dihydro-1H-purine-2,6-dione], where the note is “48 h”, the IC50 came out at 5.2 µM. Besides, the pIC50 under setting [1] is 5.29.

`CC(=O)NC/C=C(/C)CC/C=C(\C)CCC=C(C)C` [Compound 82, N-((2Z,6E)-3,7,11-Trimethyldodeca-2,6,10-trien-1-yl)acetamide]: for the setting “48 h”, the IC50 worked out at 4.5 µM. Also, the pIC50 under setting [1] is 5.35.

As for `CC(C)=CCC/C(C)=C/CC/C(C)=C/CC/C(C)=C\Cn1cnc2c(N(C)C)ncnc21` [Compound 13, N,N-Dimethyl-9-((2Z,6E,10E)-3,7,11,15-tetramethylhexadeca-2,6,10,14-tetraen-1-yl)-9H-purin-6-amine], the IC50 (48 h) worked out at 8.7 µM. Also, the pIC50 under setting [1] was 5.06.

Consider `CC(C)=CCC/C(C)=C/CCC(C)=CCn1cnc(N)c2ncnc1-2` [Compound 6, 3-((6E)-3,7,11-Trimethyldodeca-2,6,10-trien-1-yl)-3H-purin-6-amine], for which, where the note is “48 h”, the IC50 is 12.7 µM. Also, the pIC50 under setting [1] is 4.89.

In the case of `CC(C)=CCC/C(C)=C/CC/C(C)=C/CC/C(C)=C\Cn1ccc(=O)[nH]c1=O` [Compound 56, 1-((2Z,6E,10E)-3,7,11,15-Tetramethylhexadeca-2,6,10,14-tetraen-1-yl)pyrimidine-2,4(1H,3H)-dione], the IC50 (48 h) was 6.2 µM.

Consider `CC(C)=CCC/C(C)=C/CCC(C)=CCn1cc2c(=O)ncn(CC=C(C)CC/C=C(\C)CCC=C(C)C)c2n1` [Compound 48, 2,7-bis((6E)-3,7,11-trimethyldodeca-2,6,10-trien-1-yl)-2,7-dihydro-4H-pyrazolo[3,4-d]pyrimidin-4-one], for which the pIC50 is, setting by setting: (T. b. brucei parasites, stated as bound, read-out: IC50 values) more than 5.15; under setting [1], 5.26. For the same molecule, the IC50 (48 h) was 5.5 µM.

For the molecule `CC(C)=CCC/C(C)=C/CC/C(C)=C/CC/C(C)=C/CN(C)C=O` [Compound 80, N-Methyl-N-((2E,6E,10E)-3,7,11,15-tetramethylhexadeca-2,6,10,14-tetraen-1-yl)formamide], the IC50 (48 h) is 41.2 µM. Under setting [1], the pIC50 is 4.38.

For the molecule `CC(C)=CCC/C(C)=C/Cn1cnc2c1c(=O)[nH]c(=O)n2C` [Compound 29, (E)-7-(3,7-Dimethylocta-2,6-dien-1-yl)-3-methyl-3,7-dihydro-1H-purine-2,6-dione], the IC50 (48 h) amounted to 18.9 µM. Under setting [1], the pIC50 is 4.72.

As for `CC(C)=CCC/C(C)=C/CC/C(C)=C/CC/C(C)=C/CN1C(=O)c2ccccc2C1=O` [Compound 69, 2-((2E,6E,10E)-3,7,11,15-Tetramethylhexadeca-2,6,10,14-tetraen-1-yl)isoindoline-1,3-dione], the IC50 (48 h) worked out at 9.2 µM. Under setting [1], the pIC50 is 5.04.

For `CC(C)=CCC/C(C)=C/CC/C(C)=C/CC/C(C)=C/Cn1cnc2c(N)ncnc21` [Compound 8, 9-((2E,6E,10E)-3,7,11,15-Tetramethylhexadeca-2,6,10,14-tetraen-1-yl)-9H-purin-6-amine], the IC50 (48 h) was found to be 13.4 µM. Moreover, under setting [1], the pIC50 was 4.87.

In the case of `CC(C)=CCC/C(C)=C/CC12NC(=O)N=C1N(C)C(=O)N(C)C2=O` (stereo not drawn) [Compound 42, (E)-5-(3,7-Dimethylocta-2,6-dien-1-yl)-1,3-dimethyl-5,7-dihydro-1H-purine-2,6,8(3H)-trione], the IC50 (48 h) was 10.9 µM. Further, the pIC50 under setting [1] was 4.96.

As for `CC(=O)NC/C=C(\C)CC/C=C(\C)CC/C=C(\C)CCC=C(C)C` [Compound 85, N-((2E,6E,10E)-3,7,11,15-tetramethylhexadeca-2,6,10,14-tetraen-1-yl)acetamide], the IC50 (48 h) came to 3.1 µM. The pIC50 under setting [1] is 5.50.

As for `CC(C)=CCC/C(C)=C/CCC(C)=CCn1ccc(=O)[nH]c1=O` [Compound 55, 1-((6E)-3,7,11-Trimethyldodeca-2,6,10-trien-1-yl)pyrimidine-2,4(1H,3H)-dione], the IC50 (48 h) came out at 16.5 µM. For the same molecule, the pIC50 under setting [1] was 4.78.
